Holding throughout (assay type): cell-based
Experiment [1] deals with Colo205-LUC-TCF/LEF M1 reporter cell line (Wnt pathway). The experiment is described as follows: Colo205-LUC-TCF/LEF M1 reporter gene (luciferase) inhibition. To be noted: 4 hours incubation, luciferase readout. From the text: Colo205 cell line (Cell Bank of Chinese Academy of Sciences, Cat #TCHu102) was purchased from the Cell Bank of Chinese Academy of Sciences. After expansion and subculture, in the exponential growth phase of the cells, transfection with lipo3000 liposome transfection with TCF/LEF transcription factors Driven luciferase reporter plasmid (Promega). […] The plasmid carries a resistance gene for resistance screening. Transfection was carried out in 10 cm culture dishes using conventional complete medium without resistance. After 2 days, the medium with resistance was replaced, and the culture was continued. After that, the resistant medium was replaced every 2 days, and the suspended cells were discarded. The original medium was centrifuged to remove cells and debris and retained as an adaptive medium. When the cells covered the culture dish, the cells were digested, counted, and passaged in a 96-well plate, so that the average number of cells contained in each well was 1.5/well, and the adaptive medium was used for passage. The rest of the cells were frozen. After subculture, culture for 4 hours to allow the cells to adhere to the wall, and then observe the number of cells in each well under a microscope. Wells with only 1 cell per well were labeled as monoclonal wells. Afterwards, normal culture was performed, and the culture medium was replaced every 2 days, and observed. There are holes where the monoclonal cells continue to grow in the early stage, and they are labeled twice, and can be replaced with normal resistant medium. When a monoclonal well was overgrown with a 96-well plate, it is digested and passaged to a 24-well culture plate. After the 24-well plate is overgrown, it is passaged to a 96-well plate and a 6-well plate. The cells in a 96-well plate are at least 6 wells, of which 3 wells were added with known Wnt inhibitors, and the other 3 wells were not treated. After 24 hours, the cells in the 96-well plate were added with a fluorescence detection reagent to detect the fluorescence intensity. Cell lines with fluorescent expression when not treated and decreased fluorescent light after inhibition were selected and further cultured. The Colo205-LUC-TCF/LEF-M1 cell line is one of the cell lines screened above. Its growth curve, cell shape, and cell growth state are similar to those of the original Colo205 cells, and the ratio of the fluorescent signals of the inhibitor-treated and untreated cells is the largest among all cell lines, and the ratio can reach 4-5 times when inhibited at 4 hours, which was completely suitable for the screening of Wnt inhibitors in the later stage.
The Colo205-LUC-TCF/LEF M1 cell line is a reporter tool cell stably transfected with the pGL4.49-LUC2-TCF/LEF vector. The β-catenin Wnt pathway is continuously activated. After adding the inhibitor, the Wnt pathway is inhibited. The expression of firefly luciferase regulated by the[…] cis-element decreased, and after adding the detection substrate, the detected light signal decreased accordingly, so as to detect the inhibitory effect of the compound.
To a 96-well cell culture plate, add 100 uL of the compound with a maximum concentration of 20 uM to each well, and make a 3-fold serial dilution of the compound concentration. Then 10,000 colo205 cells stably transfected with the reporter gene and 100 uL medium were inoculated into each well, and corresponding positive and negative control wells were made at the same time. Put the cells in a 5% CO2 incubator and incubate at 37° C. for 4 hours. After 4 hours, remove the culture medium, add 100 uL of reagent (Promega) containing the corresponding firefly luciferase substrate to each well, and measure the activity of luciferase reporter gene. Luminescence intensity was read with SpectraMax in full wavelength mode. […]
In general terms: Reporter assays use an easily measured gene product as a stand-in for the process of interest.

The subject of experiment [2] is Colo205. The experiment is described as follows: Proliferation inhibition, Wnt mutant cell line Colo205. The note with it: Homo sapiens, COLO 205; Colo205, Wnt pathway-dependent, 96 hours; read-out: Antiproliferative IC50 Colo205. An excerpt:
(§1) The cell lines used in the experiment are Colo205 and DU4475 cell lines whose Wnt pathway is continuously activated and whose proliferation is Wnt pathway-dependent; while the BELA and RKO cell lines, whose Wnt pathway is not activated under normal circumstances and the proliferation is independent of Wnt pathway, as control cell lines. It is Judged that the inhibitory effect of the compound of the present invention on Wnt-dependent proliferation is not caused by other non-specific toxicity.
(§2) Treat the Colo205, Du4475, HELA and RKO cell lines cultured in their respective mediums in the logarithmic growth phase, collect the cells and prepare a uniform cell suspension of known concentration, and then add it to the 96-well cell culture plate Cell suspension, so that each well contains 1000 cells. Put it into a 5% CO2 incubator and incubate at 37° C. for 20-24 h. On the second day, the fully dissolved, 3-fold serially diluted compound was added to each cell culture well, so that the final maximum concentration in the cell culture well was 20 uM, and the culture was continued for 96 hours. In this test, Promega's cell viability detection test is used for detection. The more the cells proliferate, the stronger the final signal intensity will be. The detection instrument is SpectraMax, full wavelength mode. The wells only added with DMSO were used as positive control wells, and the wells that were not inoculated with cells were used as negative control wells. […] The IC50 value of cell proliferation inhibition was used to evaluate the inhibitory effect of the compound on the Wnt pathway and the toxic effect on normal cells (Table 2).

The subject of experiment [3] is DU4475. The experiment in a line: Proliferation inhibition, Wnt mutant cell line DU4475. The note with it: Homo sapiens, DU-4475; DU4475, Wnt pathway-dependent, 96 hours; read-out: Antiproliferative IC50 DU4475.
Description: as §1, §2

The subject of experiment [4] is RKO. The experiment in a line: Proliferation inhibition, non-Wnt mutant control cell line RKO. The note with it: Homo sapiens, Wnt-independent control cell line, 96 hours, read-out: Antiproliferative IC50 RKO.
Description: as §1, §2

Turning to `C[C@H]1C(=O)N2CCCc3nc(NCc4ccc(Cc5ccc(C(F)(F)F)cc5)nc4)nc(c32)N1C` [138 (W271), (S)-4,5-dimethyl-2-(((6-(4-(trifluoromethyl)benzyl)pyridin-3-yl)methyl)amino)-4,5,9, 10-tetrahydro-6H,8H-pyrido[3,2,1-de]pteridin-6-one], the IC50 (commonly the midpoint of a concentration-inhibition curve) is 25 nM in experiment [1], 48 nM in experiment [2], 40 nM in experiment [3] and over 10000 nM in experiment [4].

`CN1c2nc(NCc3ccc(Oc4cnc(C(F)(F)F)nc4)nc3)nc3c2N(CCC3)C(=O)[C@@H]1c1cccc(F)c1` [174 (W314)]: the IC50 in experiment [2] was 66 nM; in experiment [3] it was 37 nM; in experiment [4] it was over 10000 nM.

Take `C[C@H]1C(=O)N2CCCc3nc(NCc4ccc(OC5CCC(F)(F)CC5)nc4)nc(c32)N1C` [98 (W188)]: the IC50 in experiment [2] is 31 nM; in experiment [3], 31 nM; in experiment [4], over 10000 nM.

As for `CC(C)[C@H]1C(=O)N2CCCc3nc(NCc4ccc(Cn5ccc(C(F)(F)F)n5)nc4)nc(c32)N1C` [148 (W250)], the IC50 in experiment [1] is 31 nM; in experiment [2], 27 nM; in experiment [3], 13 nM; in experiment [4], over 10000 nM.

As to `O=C1[C@@H]2CCCN2c2nc(NCc3ccc(Oc4cnc(C(F)(F)F)nc4)nc3)nc3c2N1CCC3` [157 (W262)], the half-inhibitory concentration (IC50) in experiment [1] is 24 nM; in experiment [2], 31 nM; in experiment [3], 18 nM; in experiment [4], over 10000 nM.

As to `CN1c2nc(NCc3ccc(Oc4cnc(C(F)(F)F)nc4)nc3)nc3c2N(CCC3)C(=O)[C@@H]1C(C)(C)O` [145 (W331)], the half-inhibitory concentration (IC50) in experiment [2] was 43 nM; in experiment [3], 53 nM; in experiment [4] it was over 10000 nM.

For `O=C1[C@@H]2COCCN2c2nc(NCc3ccc(Oc4ccc(C(F)(F)F)nc4)nc3)nc3c2N1CCC3` [124 (W278), (S)-2-(((6-((6-(trifluoromethyl)pyridin-3-yl)oxo)pyridin-3-yl)methyl)amino)-5,6,8a,9, 11,12-Hexahydro-4H,8H-[1,4]oxazino[3,4-h]pyrido[3,2,1-de]pteridin-8-one], the IC50 in experiment [2] is 152 nM; in experiment [3], 51 nM; in experiment [4], over 10000 nM.

On to `COC[C@H]1Cn2ccc3nc(NCc4ccc(OC5CCC(F)(F)CC5)nc4)nc(c32)N1C` [85 (W132)], for which the IC50 was 7 nM in experiment [1], 8.3 nM in experiment [2], 11.6 nM in experiment [3] and 5500 nM in experiment [4].

On to `CO[C@@H](C)[C@H]1C(=O)N2CCCc3nc(NCc4ccc(Oc5ccc(C(F)(F)F)nc5)nc4)nc(c32)N1C` [113 (W247), (S)-5-((S)-1-methoxyethyl)-4-methyl-2-(((6-((6-(trifluoromethyl)pyridin-3-yl)oxo)pyridin-3-yl)methyl)amino)-4,5,9,10-tetrahydro-6H,8H-pyrido[3,2,1-de]pteridin-6-one], for which the IC50 is 31 nM in experiment [1], 48 nM in experiment [2], 64 nM in experiment [3] and over 10000 nM in experiment [4].

Turning to `CC(C)[C@H]1C(=O)N2CCCc3nc(NCc4ccc(Oc5cnc(C(F)(F)F)nc5)nc4)nc(c32)N1C` [159 (W259)], the IC50 in experiment [1] is 2 nM; in experiment [2] it was 4.6 nM; in experiment [3], under 0.5 nM; in experiment [4] it was over 10000 nM.

Regarding `CN1c2nc(NCc3ccc(Oc4ccc(C(F)(F)F)nc4)nc3)nc3c2N(CCC3)C(=O)[C@]1(C)CO` [133 (W377), (S)-5-(hydroxymethyl)-4,5-dimethyl-2-(((6-((6-(trifluoromethyl)pyridin-3-yl)oxo)pyridine-3-yl)methyl)amino)-4,5,9,10-tetrahydro-6H,8H-pyrido[3,2,1-de]pteridin-6-one], the IC50 in experiment [1] was 58 nM; in experiment [2], 35 nM; in experiment [4], over 10000 nM.

`C[C@H](O)[C@@]1(C)C(=O)N2CCCc3nc(NCc4ccc(Oc5ccc(C(F)(F)F)nc5)nc4)nc(c32)N1C` [239 (W427)]: the figures for the IC50 in experiment [1], in experiment [2] and in experiment [4] were 36 nM, 28.3 nM and over 10000 nM, respectively.

Consider `CN1c2nc(NCc3ccc(Oc4ccc(C(F)(F)F)nc4)nc3)nc3c2N(CCC3)C(=O)[C@@H]1C(C)(C)O` [122 (W272), (S)-5-(2-hydroxypropan-2-yl)-4-methyl-2-(((6-((6-(trifluoromethyl)pyridin-3-yl)oxo)pyridine-3-yl)methyl)amino)-4,5,9,10-tetrahydro-6H,8H-pyrido[3,2,1-de]pteridin-6-one], for which the IC50 in experiment [2] is 87 nM; in experiment [3], 58 nM; in experiment [4], over 10000 nM.

For the molecule `C[C@H](O)[C@@]1(C)C(=O)N2CCCc3nc(NCc4ccc(Oc5cnc(C(F)(F)F)nc5)nc4)nc(c32)N1C` [240 (W428)], the figures for the IC50 in experiment [1], in experiment [2] and in experiment [4] were 16.6 nM, 11.1 nM and over 10000 nM, respectively.

For `COC[C@H]1C(=O)N2CCCc3nc(NCc4ccc(Oc5cnc(C(F)(F)F)nc5)nc4)nc(c32)N1C` [154 (W258)], the IC50 in experiment [1] was 30 nM; in experiment [2], 37 nM; in experiment [3] it was 30 nM; in experiment [4] it was over 10000 nM.

In the case of `CN1c2nc(NCc3ccc(Oc4ccc(C(F)(F)F)nc4)nc3)nc3c2N(CCC3)C(=O)[C@@H]1C(F)(F)F` [185 (W310)], the IC50 in experiment [1] is 69 nM; in experiment [2] it was 63 nM; in experiment [3], 99 nM; in experiment [4], over 10000 nM.

For `CO[C@H](C)[C@H]1C(=O)N2CCCc3nc(NCc4ccc(Oc5cnc(C(F)(F)F)nc5)nc4)nc(c32)N1C` [156 (W264)], the IC50 in experiment [1] was 39 nM; in experiment [2] it was 27 nM; in experiment [3] it was 13 nM; in experiment [4], over 10000 nM.

Regarding `[2H]C([2H])([2H])n1nc(C(F)(F)F)cc1Oc1ccc(CNc2nc3c4c(n2)N(C)[C@@H](CO)C(=O)N4CCC3)cn1` [241 (W431)], the IC50 in experiment [1] was 9.3 nM; in experiment [2], 11.5 nM; in experiment [4], over 10000 nM.

Consider `COCC[C@H]1C(=O)N2CCCc3nc(NCc4ccc(Oc5cnc(C(F)(F)F)nc5)nc4)nc(c32)N1C` [211 (W390)], for which the IC50 in experiment [1] was 43 nM; in experiment [2] it was 23 nM; in experiment [4] it was over 10000 nM.

Turning to `CCOC[C@H]1C(=O)N2CCCc3nc(NCc4ccc(Oc5cnc(C(F)(F)F)nc5)nc4)nc(c32)N1C` [155 (W347)], the IC50 in experiment [1] is 77 nM; in experiment [2], 88 nM; in experiment [4], over 10000 nM.

These data come from patent US12622917B2, “High-activity Wnt pathway inhibitor compound” (ADLAI NORTYE BIOPHARMA CO., LTD., priority 2020, dated 2026).
